In patent US20240101573A1, “MACROCYCLIC K-RAS G12C INHIBITOR, PREPARATION METHOD THEREFOR AND USE THEREOF” (Abbisko Therapeutics Co., Ltd., priority 2020, published 2024):

How the values were obtained:
MIA PaCa-2 = experiment: Anti-proliferation 2D CTG test (MIA PaCa-2); assay type: cell-based; settings: MIAPACA-2 cells, 500 cells/well, 5 days incubation with compound, CTG readout
Method: (§1) When the cell confluency was 80%, the cells were isolated with 0.25% trypsin. The isolated cells were resuspended in 5 mL of fresh cell culture medium and centrifuged to collect the cells. The number of cells were counted at the same time. Then, the cells were suspended in a culture medium at a moderate concentration. The cells were placed into a 96-well plate with 1500 cells/well for H358 and 500 cells/well for MIAPACA-2. The 96-well plate was placed in an incubator at 37° C. and incubated overnight.
(§2) 2) Day 1: processing of compound
(§3) A 2 mM stock solution was serially diluted at 10 points at a ratio of 1:3. 5× culture medium containing the compound was transferred to the corresponding wells of 96 wells. The final peak concentration of the compound was […], and the final concentration of DMSO was 0.5%. The 96-well plate was placed in the incubator at 37° C. and incubated for 5 days.
(§4) 3) Baseline reading. 4) Day 6: reading of signals
(§5) A detection reagent (CTG) was added at 50 μL/well, and the signals were read in an Envision instrument.
(§6) The percentage of inhibition ([…]) at each compound concentration was calculated based on the signals from the HPE and ZPE control wells contained in each assay plate and the fluorescence signals from individual compound wells. The inhibition rate in the ZPE control wells containing the enzyme and substrate was 0%, and the inhibition rate in the HPE control wells only containing the substrate was […]. By testing the compound in terms of numeric concentration and inhibition percentage, the compound concentration required for […] inhibition (IC50) was determined using a four-parameter logarithmic dose-response equation. The endpoint value (IC50) of the reference compound was evaluated in each experiment as a quality control measure. If the endpoint value was within three times the expected value, the experiment was considered acceptable.

H358 = experiment: Anti-proliferation 2D CTG test (H358); assay type: cell-based; settings: H358 cells, 1500 cells/well, 5 days incubation with compound, CTG readout
Method: as §1, §2, §3, §4, §5, §6

[1] = Homo sapiens, MIA PaCa-2, 120 h

IC50 (MIA PaCa-2) [nM] | IC50 (H358) [nM] | IC50 (MIA PaCa-2; [1]) [nM] | IC50 (H358; Homo sapiens, NCI-H358, 120 h) [nM] | Compound
1 | 3 |  |  | 11-((S)-4-acryloyl-2-methylpiperazin-1-yl)-2-((dimethylamino)methyl)-15,21-difluoro-7-isopropyl-3a,20a-dihydro-9H,20H-12,14-(epiethane[1,2]diylidene)benzo[b][1,3]dioxazolo[4,5-j]pyri do[3,4-h]pyrimido[6,1-f][1]oxa[5,7]diazacyclododecin-9-one [Example 64]
10 | 13 |  |  | C=CC(=O)N1CCN(c2nc(=O)n3c4nc(c(F)cc24)-c2c(F)cccc2OCC(O)C(O)c2ccnc(C(C)C)c2-3)[C@@H](C)C1 (stereo partly drawn) [Example 1, 2^4-((S)-4-acryloyl-2-methylpiperazin-1-yl)-2^6,3^6-difluoro-6,7-dihydroxy-1^2-isopropyl-2^1,2^2-dihydro-4-oxa-2(1,7)-pyrido[2,3-d]pyrimidina-1(3,4)-pyridina-3(1,2)-benzocycloheptane-2^2-one]
12 | 9 |  |  | C=CC(=O)N1CCN(c2nc(=O)n3c4nc(c(F)cc24)-c2c(F)cccc2OCC(O)C(O)c2ccnc(C(C)C)c2-3)[C@@H](C)C1 (stereo partly drawn) [Example 1-R, (R)-2^4-((S)-4-acryloyl-2-methylpiperazin-1-yl)-2^6,3^6-difluoro-6,7-dihydroxy-1^2-isopropyl-2^1,2^2-dihydro-4-oxa-2(1,7)-pyrido[2,3-d]pyrimidina-1(3,4)-pyridina-3(1,2)-benzocycloheptane-2^2-one]
100 | 931 |  |  | C=CC(=O)N1CCN(c2nc(=O)n3c4nc(c(F)cc24)-c2c(F)cccc2OCC(O)C(O)c2ccnc(C(C)C)c2-3)[C@@H](C)C1 (stereo partly drawn) [Example 1-S, (S)-2^4-((S)-4-acryloyl-2-methylpiperazin-1-yl)-2^6,3^6-difluoro-6,7-dihydroxy-1^2-isopropyl-2^1,2^2-dihydro-4-oxa-2(1,7)-pyrido[2,3-d]pyrimidina-1(3,4)-pyridina-3(1,2)-benzocycloheptane-2^2-one]
1 | 2 |  |  | C=CC(=O)N1C[C@H](C)N(c2nc(=O)n3c4nc(c(F)cc24)-c2c(F)cccc2OCC(O)C(O)c2ccnc(C(C)C)c2-3)C[C@H]1C (stereo partly drawn) [Example 2, (R)-2^4-((2S,5R)-4-acryloyl-2,5-dimethylpiperazin-1-yl)-2^6,3^6-difluoro-6,7-dihydroxy-1^2-isopropyl-2^1,2^2-dihydro-4-oxa-2(1,7)-pyrido[2,3-d]pyrimidina-1(3,4)-pyridina-3(1,2)-benzocycloheptane-2^2-one]
400 | 1250 |  |  | C=CC(=O)N1C[C@H](C)N(c2nc(=O)n3c4nc(c(F)cc24)-c2c(F)cccc2OCC(O)C(O)c2ccnc(C(C)C)c2-3)C[C@H]1C (stereo partly drawn) [Example 3, (S)-2^4-((2S,5R)-4-acryloyl-2,5-dimethylpiperazin-1-yl)-2^6,3^6-difluoro-6,7-dihydroxy-1^2-isopropyl-2^1,2^2-dihydro-4-oxa-2(1,7)-pyrido[2,3-d]pyrimidina-1(3,4)-pyridina-3(1,2)-benzocycloheptane-2^2-one]
 |  | 83 | 73 | C=CC(=O)N1CCN(c2nc(=O)n3c4nc(c(F)cc24)-c2c(F)cccc2OCC(O)C(=O)c2ccnc(C(C)C)c2-3)[C@@H](C)C1 (stereo partly drawn) [Example 4, 2^4-((S)-4-acryloyl-2-methylpiperazin-1-yl)-2^6,3^6-difluoro-6-hydroxy-1^2-isopropyl-2^1,2^2-dihydro-4-oxa-2(1,7)-pyrido[2,3-d]primidina-1(3,4)-pyridina-3(1,2)-benzocycloheptane-2^2,7-dione]
 |  | 10 | 10 | C=CC(=O)N1CCN(c2nc(=O)n3c4nc(c(F)cc24)-c2c(F)cccc2OCC(O)C(OC(=O)CC)c2ccnc(C(C)C)c2-3)[C@@H](C)C1 (stereo partly drawn) [Example 6, 2^4-((S)-4-acryloyl-2-methylpiperazin-1-yl)-2^6,3^6-difluoro-6-hydroxy-1^2-isopropyl-2^2-oxo-2^1,2^2-dihydro-4-oxa-2(1,7)-pyrido[2,3-d]pyrimidina-1(3,4)-pyridina-3(1,2)-benzocycloheptane-7-yl propionate]
 |  | 10 | 15 | C=CC(=O)N1CCN(c2nc(=O)n3c4nc(c(F)cc24)-c2c(F)cccc2OCC(O)C(OC(C)=O)c2ccnc(C(C)C)c2-3)[C@@H](C)C1 (stereo partly drawn) [Example 7, 2^4-((S)-4-acryloyl-2-methylpiperazin-1-yl)-2^6,3^6-difluoro-6-hydroxy-1^2-isopropyl-2^2-oxo-2^1,2^2-dihydro-4-oxa-2(1,7)-pyrido[2,3-d]pyrimidina-1(3,4)-pyridina-3(1,2)-benzocycloheptane-7-yl acetate]
 |  | 3 | 9 | C=CC(=O)N1C[C@H](C)N(c2nc(=O)n3c4nc(c(F)cc24)-c2c(F)cccc2OCC(O)C(OC(C)=O)c2ccnc(C(C)C)c2-3)C[C@H]1C (stereo partly drawn) [Example 8, 2^4-((2S,5R)-4-acryloyl-2,5-dimethylpiperazin-1-yl)-2^6,3^6-difluoro-6-hydroxy-1^2-isopropyl-2^2-oxo-2^1,2^2-dihydro-4-oxa-2(1,7)-pyrido[2,3-d]pyrimidina-1(3,4)-pyridina-3(1,2)-benzocycloheptane-7-yl acetate]
 |  | 13 | 21 | C=CC(=O)N1CCN(c2nc(=O)n3c4nc(c(F)cc24)-c2c(F)cccc2OCC(O)C(OC(=O)C(C)C)c2ccnc(C(C)C)c2-3)[C@@H](C)C1 (stereo partly drawn) [Example 9, 2^4-((S)-4-acryloyl-2-methylpiperazin-1-yl)-2^6,3^6-difluoro-6-hydroxy-1^2-isopropyl-2^2-oxo-2^1,2^2-dihydro-4-oxa-2(1,7)-pyrido[2,3-d]pyrimidina-1(3,4)-pyridina-3(1,2)-benzocycloheptane-7-yl isobutyrate]
 |  | 4 | 5 | C=CC(=O)N1CCN(c2nc(=O)n3c4nc(c(F)cc24)-c2c(F)cccc2OCC(O)C(OC(=O)C2CC2)c2ccnc(C(C)C)c2-3)[C@@H](C)C1 (stereo partly drawn) [Example 10, 2^4-((S)-4-acryloyl-2-methylpiperazin-1-yl)-2^6,3^6-difluoro-6-hydroxy-1^2-isopropyl-2^2-oxo-2^1,2^2-dihydro-4-oxa-2(1,7)-pyrido[2,3-d]pyrimidina-1(3,4)-pyridina-3(1,2)-benzocycloheptane-7-yl cyclopropanecarboxylate]
 |  | 21 | 26 | C=CC(=O)N1CCN(c2nc(=O)n3c4nc(c(F)cc24)-c2c(F)cccc2OCC(O)C(OC(=O)OC(C)(C)C)c2ccnc(C(C)C)c2-3)[C@@H](C)C1 (stereo partly drawn) [Example 11, 2^4-((S)-4-acryloyl-2-methylpiperazin-1-yl)-2^6,3^6-difluoro-6-hydroxy-1^2-isopropyl-2^2-oxo-2^1,2^2-dihydro-4-oxa-2(1,7)-pyrido[2,3-d]pyrimidina-1(3,4)-pyridina-3(1,2)-benzocycloheptane-7-yl tert-butylcarbonate]
 |  | 26 | 26 | C=CC(=O)N1CCN(c2nc(=O)n3c4nc(c(F)cc24)-c2c(F)cccc2OCC(OC(=O)CC)C(OC(=O)CC)c2ccnc(C(C)C)c2-3)[C@@H](C)C1 (stereo partly drawn) [Example 12, 2^4-((S)-4-acryloyl-2-methylpiperazin-1-yl)-2^6,3^6-difluoro-1^2-isopropyl-2^2-oxo-2^1,2^2-dihydro-4-oxa-2(1,7)-pyrido[2,3-d]pyrimidina-1(3,4)-pyridina-3(1,2)-benzocycloheptane-6,7-diyl dipropionate]
 | 668 |  |  | C=CC(=O)N1CCN(c2nc(=O)n3c4nc(c(F)cc24)-c2c(ccc(Cl)c2F)OCC(O)C(OCC)c2ccnc(C(C)C)c2-3)[C@@H](C)C1 (stereo partly drawn) [Example 73, (S)-2^4-((S)-4-acryloyl-2-methylpiperazin-1-yl)-3^5-chloro-7-ethoxy-2^6,3^6-difluoro-6-hydroxy-1^2-isopropyl-2^1,2^2-dihydro-4-oxa-2(1,7)-pyrido[2,3-d]pyrimidina-1(3,4)-pyridina-3(1,2)-benzocycloheptane-2^2-one]
 | 523 |  |  | C=CC(=O)N1C[C@H](C)N(c2nc(=O)n3c4nc(c(F)cc24)-c2c(ccc(Cl)c2F)OCC(O)C(OCC)c2ccnc(C(C)C)c2-3)C[C@H]1C (stereo partly drawn) [Example 77, (S)-(S)-2^4-((2S,5R)-4-acryloyl-2,5-dimethylpiperazin-1-yl)-3^5-chloro-7-ethoxy-2^6,3^6-difluoro-6-hydroxy-1^2-isopropyl-2^1,2^2-dihydro-4-oxa-2(1,7)-pyrido[2,3-d]pyrimidina-1(3,4)-pyridina-3(1,2)-benzocycloheptane-2^2-one]

Compound | IC50 (MIA PaCa-2) [nM] | IC50 (H358) [nM] | IC50 (MIA PaCa-2; [1]) [nM] | IC50 (H358; Homo sapiens, NCI-H358, 120 h) [nM]
2^4-((S)-4-acryloyl-2-methylpiperazin-1-yl)-2^6,3^6-difluoro-7-hydroxy-1^2-isopropyl-2^1,2^2-dihydro-4-oxa-2(1,7)-pyrido[2,3-d]pyrimidina-1(3,4)-pyridina-3(1,2)-benzocycloheptane-2^2-one [Example 5] | 20 | 19 |  | 
